Experimental data published in US8937193B2, “Apogossypolone derivatives as anticancer agents” (Sanford-Burnham Medical Research Institute, priority 2009, dated 2015).
Read-outs that look alike come from different tables or passages of the source.

Key:
[1] = EC50 values of FIG. 3(B); details: test not named
[2] = not given; remark: listed apart in the source
[3] = format: physicochemical
From the text: The chemical stability of solid compounds may be evaluated at room temperature. The stability of the compound was monitored using a combination of HPLC and LCMS.

[4] = administered orally (6a); cited from earlier work
[5] = In vitro plasma stability; details: for Plasma Stability (T = 40 mins): Table 4
From the text: (§1) To test the pharmacological properties of the compounds of Formula I, the in vitro plasma stability, microsomal stability, and cell membrane permeability may be determined.

[6] = biological target: T1, Bcl-XL (Homo sapiens (Human), UniProt Q07817); test: Isothermal titration calorimetry (ITC), Bcl-XL; format: binding
Target sequence in this assay (Q07817 whole entry): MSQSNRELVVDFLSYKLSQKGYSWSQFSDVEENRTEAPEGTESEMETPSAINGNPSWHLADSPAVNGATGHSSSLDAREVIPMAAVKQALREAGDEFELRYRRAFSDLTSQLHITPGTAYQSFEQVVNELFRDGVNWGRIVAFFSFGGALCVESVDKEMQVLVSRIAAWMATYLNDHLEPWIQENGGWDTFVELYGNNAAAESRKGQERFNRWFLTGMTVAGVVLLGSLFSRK

[7] = biological target: Bcl-2 (Homo sapiens (Human), UniProt P10415); test: Fluorescence polarization competitive binding assay (FPA), Bcl-2; details: displacement of BH3 peptide
Experimental: (§2) For competitive binding assays, 100 nM GST-BCL-XL ΔTM protein was preincubated with the tested compound at varying concentrations in 47.5 μL PBS (pH=7.4) in 96-well black plates at room temperature for 10 min, then 2.5 μL of 100 nM FITC-labeled Bak BH3 peptide was added to produce a final volume of 50 μL. The wild-type and mutant Bak BH3 peptides were included in each assay plate as positive and negative controls, respectively. After 30 min incubation at room temperature, the polarization values in millipolarization units were measured at excitation/emission wavelengths of 480/535 nm with a multilabel plate reader (PerkinElmer). IC50 was determined by fitting the experimental data to a sigmoidal dose-response nonlinear regression model (SigmaPlot 10.0.1, Systat Software, Inc., San Jose, Calif., USA). Data reported are mean of three independent experiments±standard error (SE). […] Fluorescence polarization was measured after 10 min.

[8] = tested on: primary CLL cells; test: Annexin-V apoptosis assay, primary CLL cells; format: cell-based, human
Experimental: The apoptotic activity of the compounds against RS4;11, BP3 and primary CLL cells was assessed by staining with Annexin V-FITC and propidium iodide (PI). Cells were cultured in RPMI 1640 medium (Mediatech Inc., Herndon, Va. 20171) containing 10% fetal bovine serum (Mediatech Inc., Herndon, Va. 20171) and Penicillin/Streptomycin (Mediatech Inc., Herndon, Va. 20171). […] The percentage of viable cells was determined by FITC-Annexin V- and propidium iodide (PI)-labeling, using an Apoptosis Detection kit (BioVision Inc.), and analyzing stained cells by flow cytometry (FACSort; Bectin-Dickinson, Inc.; Mountain View, Calif.). Cells that were annexin-V-negative and PI-negative were considered viable.

[9] = biological target: Bfl-1 (Homo sapiens (Human), UniProt Q16548); test: Fluorescence polarization competitive binding assay (FPA), Bfl-1; details: displacement of BH3 peptide
Experimental: as §2

[10] = biological target: T1, Bcl-XL; test: 1D 1H-NMR binding assay against Bcl-XL; set-up: key: +++: Very Active; ++: Active; +: Mild; −: Weak; details: 4-point-rating scale, binding to Bcl-XL
Target sequence in this assay (Q07817 whole entry): as above

[11] = biological target: Mcl-1 (Homo sapiens (Human), UniProt Q07820); test: Fluorescence polarization competitive binding assay (FPA), Mcl-1; details: displacement of BH3 peptide
Experimental: as §2

[12] = biological target: T1, Bcl-XL; test: Fluorescence polarization competitive binding assay (FPA), Bcl-XL; details: displacement of BH3 peptide
Target sequence in this assay (Q07817 1-211): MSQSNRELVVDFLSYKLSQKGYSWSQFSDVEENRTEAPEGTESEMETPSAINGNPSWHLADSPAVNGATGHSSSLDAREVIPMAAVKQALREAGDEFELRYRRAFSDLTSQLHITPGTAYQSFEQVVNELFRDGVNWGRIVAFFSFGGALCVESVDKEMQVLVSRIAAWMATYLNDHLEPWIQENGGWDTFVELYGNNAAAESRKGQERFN
Experimental: as §2

[13] = tested on: PPC-1 xenograft tumors; test: PPC-1 tumor xenograft study in nude mice
Experimental: Female 6-week-old nude mice were purchased from Charles River Laboratories. 5×10^6 PCC-1 cells suspended in 0.2 ml PBS were injected subcutaneously into a flank region of each nude mouse. Tumor bearing mice were size matched (200 mm^3) into treatment and control group, ear tagged, and monitored individually. Tumor volume was measured two to three times weekly by digital calipers (volume=length×width^2/2). All studies use 6 mice per group. […] Control mice received saline. The injections were given three times in first week, twice in second week and once in third week and a total of six injections were administered during the experiment. When all tumors of the control group exceed 2000 mm^3 in volume, the animal experiment was terminated. Tumor growth inhibition ratios (T/C %) were calculated by dividing the average tumor volume in the treatment group by the average tumor volume in the control group.

[14] = In vitro microsomal stability; details: Table 4
From the text: as §1

[15] = tested on: H460 cell line; details: pan-Bcl-2 family inhibitor from literature; cited from earlier work

Sequence of Bfl-1 (Q16548 whole entry): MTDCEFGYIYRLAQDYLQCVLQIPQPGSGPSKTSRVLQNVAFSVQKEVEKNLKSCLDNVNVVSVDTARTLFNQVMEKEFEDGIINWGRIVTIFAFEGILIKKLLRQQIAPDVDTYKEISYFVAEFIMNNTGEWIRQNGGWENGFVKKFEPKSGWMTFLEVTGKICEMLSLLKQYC
Sequence of Bcl-2 (P10415 whole entry): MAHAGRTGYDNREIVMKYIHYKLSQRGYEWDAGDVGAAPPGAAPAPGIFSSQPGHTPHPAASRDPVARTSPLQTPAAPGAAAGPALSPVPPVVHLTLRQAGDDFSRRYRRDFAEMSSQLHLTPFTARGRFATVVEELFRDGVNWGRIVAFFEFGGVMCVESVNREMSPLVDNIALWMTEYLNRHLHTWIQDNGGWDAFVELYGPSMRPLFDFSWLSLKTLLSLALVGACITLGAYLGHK
Sequence of Mcl-1 (Q07820 whole entry): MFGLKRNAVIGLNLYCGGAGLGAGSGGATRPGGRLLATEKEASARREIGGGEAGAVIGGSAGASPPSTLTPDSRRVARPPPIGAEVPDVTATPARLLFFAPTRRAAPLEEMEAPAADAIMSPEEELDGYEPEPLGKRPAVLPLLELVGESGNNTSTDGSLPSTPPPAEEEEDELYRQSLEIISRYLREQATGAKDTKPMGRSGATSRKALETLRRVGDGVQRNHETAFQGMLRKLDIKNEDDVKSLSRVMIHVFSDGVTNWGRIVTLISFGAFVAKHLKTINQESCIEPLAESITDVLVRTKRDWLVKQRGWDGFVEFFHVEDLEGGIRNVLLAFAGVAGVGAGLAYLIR

| SMILES | Plasma Stability (T = 40 mins) [5] [%] | Kd [6] [nM] | IC50 [7] [nM] | IC50 [9] [nM] | 1D-1H NMR [10] | IC50 [11] [nM] | IC50 [12] [nM] | other results |
| --- | --- | --- | --- | --- | --- | --- | --- | --- |
| Cc1cc2c(C(C)C)c(O)c(O)cc2c(O)c1-c1c(C)cc2c(C(C)C)c(O)c(O)cc2c1O [Apogossypol] | – | – | – | – | – | – | – | degraded after 1 hour incubation in rat plasma: 47%; EC50 [1]: 2800 nM; degraded after 1 hour incubation in rat microsomal preparations [2]: 36%; degraded after 60 days at room temperature [3]: ~80% |
| CC1=C(C2=C(C)C(=O)c3c(cc(O)c(O)c3C(C)C)C2=O)C(=O)c2cc(O)c(O)c(C(C)C)c2C1=O [Compound 6a, 6,6′,7,7′-tetrahydroxy-5,5′-diisopropyl-3,3′-dimethyl-2,2′-binaphthyl-1,1′,4,4′-tetraone, reference compound] | 77 | 2800 | 370 ± 20 | 2170 ± 350 | +++ | 540 ± 30 | 630 ± 20 | maximum tolerated dose (MTD) [4]: above 240 mg/kg; degraded after 1 hour incubation in rat plasma ([5]; 1 h, rat plasma (preparations)): 23%; LD50 primary CLL samples ([8]; comparison of 6c with 6a): > 30 µM; LD50 primary CLL samples ([8]; two primary CLL samples, one day Annexin-V apoptosis assay): > 30 µM; average body weight losses during the treatment ([13]; 50 mg/kg i.p.): 9.3%; weight loss in first week ([13]; 50 mg/kg i.p. three times in first week): ~5% |
| CC1=C(C2=C(C)C(=O)c3c(cc(O)c(O)c3CC(C)C)C2=O)C(=O)c2cc(O)c(O)c(CC(C)C)c2C1=O [Compound 6b, 6,6′,7,7′-tetrahydroxy-5,5′-diisobutyl-3,3′-dimethyl-2,2′-binaphthyl-1,1′,4,4′-tetraone] | 98 | 1500 ± 800 | 250 ± 20 | 1410 ± 110 | +++ | 470 ± 30 | 550 ± 60 | Microsomal Stability (T = 40 mins) [14]: 69% |
| COC1=CC(c2cc3ccccc3[nH]2)=N/C1=C\c1[nH]c(C)cc1C [GX15-070] | – | – | – | – | – | – | – | IC50 [15]: 3850 nM |
